According to ChEMBL document CHEMBL1158757, “Ophiocerins A-D and ophioceric acid: tetrahydropyran derivatives and an africane sesquiterpenoid from the freshwater aquatic fungus Ophioceras venezuelense” (J Nat Prod, 2005):
The source made the active and inactive calls.

Key:
Type in all cases: functional, organism-based
Candida albicans = experiment: Antifungal activity against Candida albicans at 200 ug/disk
Staphylococcus aureus = experiment: Antibacterial activity against Staphylococcus aureus at 200 ug/disk
Escherichia coli = experiment: Antimicrobial activity against Escherichia coli at 200 ug/disk

Measured: Activity

C[C@@H]1C[C@@H](O)[C@H](O)CO1
inactive: Candida albicans | Staphylococcus aureus | Escherichia coli

C/C=C\C(=O)O[C@@H]1[C@H](O)[C@@H](O)CO[C@@H]1C
inactive: Candida albicans | Staphylococcus aureus | Escherichia coli

CC1=C2CC(C)(C)C[C@H]3C[C@@]3(C(=O)O)[C@@H]2CC1=O
inactive: Candida albicans | Staphylococcus aureus | Escherichia coli

C[C@@H]1C[C@H](O)[C@@H](O)CO1
inactive: Candida albicans | Staphylococcus aureus | Escherichia coli

C[C@@H]1C[C@@H](O)[C@@H](O)CO1
inactive: Candida albicans | Staphylococcus aureus | Escherichia coli
